Test results as given in patent US20200079786A1, “ANALOGS OF […] AS SOLUBLE EPOXIDE HYDROLASE INHIBITORS” (UNIVERSITAT DE BARCELONA, priority 2015, published 2020).

Key:
[1] = Determination of cytotoxicity in THLE-2 cells (ATP viability); type: cell-based; settings: human; THLE-2 cells, 72 h exposure, 0-100 μM; read-out: LC50 (μM), cytotoxicity
Experimental: Cytotoxic effects of assayed compounds were tested using the immortalized human liver cell line THLE-2 (ATCC CRL-2706). Cells were cultured in BEGM medium (Clonetics # CC-4175) containing all the supplements kit except additional EGF and G418. Medium was completed by adding 0.7 μg/mL phosphoethanolamine, 0.5 ng/mL epidermal growth factor, antibiotics (penicillin and streptomycin) and 10% fetal bovine serum (FBS).
Cells were plated in 96-well black microplates at 10,000 cells/well density and were incubated at 37° C. (5% CO2, 95% humidity) for 24 h to allow the cells to adhere and form a monolayer. Test compounds were solubilized in 100% DMSO at a concentration curve way and then diluted with cell culture medium containing 10% DMSO. The final concentrations of the test compounds (1% DMSO) ranged from 0-100 μM in a final volume of 200 μL. Microplates were maintained at 37° C. (5% CO2, 95% humidity) during 3 days. Following this 72 h exposure to test compounds, cell viability in each well was determined by measuring the concentration of cellular adenosine triphosphate (ATP) using the ATP1Step Kit as described by the manufacturer (Perkin-Elmer). In a typical procedure, 50 μL of cell reagent is added to all wells of each test plate followed by incubation for 10 min at room temperature on an orbital shaker. ATP concentration was determined by reading chemical luminescence using the Envision plate reader (PerkinElmer). The percentage of viable cells relative to the non-drug treated controls was determined for each well and LC50 values were calculated as concentrations projected to kill 50% of the cells following a 72 h exposure, an average of minimum two independent replicates.

[2] = tested on: Huh-7 cells; experiment: Amelioration of palmitate-induced ER stress: ATF3, BiP and CHOP mRNA by real-time PCR; type: cell-based; settings: palmitate 0.5 mM + inhibitor 1 μM, 48 h
Experimental: Huh-7 cells were maintained in a humid atmosphere of 5% CO2 at 37° C. in high glucose (25 mM) Dulbecco's modified Eagle's medium supplemented with 10% heat-inactivated fetal bovine serum, 1% of penicillin/streptomycin (10.000 units/mL of penicillin and 10.000 μg/mL of streptomycin) and 1% of amphotericin B (250 μg/mL).
Huh-7 cells were serum-starved overnight prior treatment. […] For RNA extraction, cells were pre-treated with the inhibitors (final concentration 1 μM) for 1 hour before treatment with palmitate (final concentration 0.5 mM) and inhibitors (final concentration 1 μM). For each condition, at least 3 replicates were performed. Following 48 hours of incubation, RNA were extracted as described below.
Total RNA in hepatocytes was harvested by TRIsure (Bioline) according to the manufacturer's instructions. The extracted RNA was dissolved in RNase-free water and concentrations of total RNA were quantified using a NanoDrop 2000c spectrophotometer (Thermo Scientific). First-stranded cDNA was synthesized from 0.5 μg total RNA (Life Technologies). […] The PCR reaction contained 10 ng of reverse-transcribed RNA, 2× IQ™ SYBRGreen Supermix (BioRad, Barcelona, Spain) and 900 nmol/L concentration of each primer. Optical primer amplification efficiency for each primer set was assessed and a dissociation protocol was carried out to assure a single PCR product. PCR assays were performed on a MiniOpticon™ Real-Time PCR system (BioRad). Thermal cycling conditions were as follows: activation of Taq DNA polymerase at 95° C. for 10 min, followed by 40 cycles of amplification at 95° C. for 15 sec and 60° C. for 1 min. The relative levels of specific mRNA were estimated from the value of the threshold cycle (Ct) of the real-time PCR adjusted by that of a housekeeping gene (GAPDH) through the formula […] (ΔCt=Gene of interest Ct-GAPDH Ct). Cf.

[3] = target: T1, recombinant human sEH (Homo sapiens, UniProt P34913); experiment: In vitro determination of sEH inhibition activity (fluorescent assay, PHOME substrate); type: biochemical; settings: mean ± Standard Error, min. three replicates, read-out: IC50 (nM) ± SE, sEH inhibition activity
T1 construct: purchased Cayman Chemical 10011669
T1 sequence (P34913 1-555): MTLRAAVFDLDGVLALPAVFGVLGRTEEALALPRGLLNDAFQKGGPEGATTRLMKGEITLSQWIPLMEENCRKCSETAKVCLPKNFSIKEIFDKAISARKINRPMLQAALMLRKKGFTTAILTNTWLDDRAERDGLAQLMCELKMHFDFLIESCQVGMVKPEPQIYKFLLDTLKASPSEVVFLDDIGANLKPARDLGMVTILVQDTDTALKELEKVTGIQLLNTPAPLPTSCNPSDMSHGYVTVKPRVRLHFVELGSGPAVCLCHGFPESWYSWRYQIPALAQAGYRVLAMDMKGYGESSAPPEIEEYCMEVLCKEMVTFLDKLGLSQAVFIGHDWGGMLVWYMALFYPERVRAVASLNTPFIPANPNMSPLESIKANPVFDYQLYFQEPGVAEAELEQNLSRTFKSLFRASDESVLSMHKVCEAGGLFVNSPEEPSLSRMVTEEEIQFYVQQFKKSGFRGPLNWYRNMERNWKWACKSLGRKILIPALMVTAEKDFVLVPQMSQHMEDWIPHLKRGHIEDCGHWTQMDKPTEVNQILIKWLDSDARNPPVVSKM
Experimental: 3-(Phenyl-oxiranyl)-acetic acid cyano-(6-methoxy-naphthalen-2-yl)-methyl ester (PHOME; from Cayman Chemical, item number 10009134; CAS 1028430-42-3); cf. N. M. Wolf et al., Anal. Biochem. 2006, vol. 355, pp. 71-80.
Solutions: • Assay buffer: Bis/Tris HCl 25 mM pH 7.0 containing 0.1 mg/mL of bovine serum albumin (BSA). • PHOME at 200 μM in DMSO. • Solution of recombinant human sEH (Cayman Chemical, item number 10011669), diluted with assay buffer. • Inhibitors dissolved in DMSO at appropriated concentrations.
In a black 96-well plate (Greiner Bio-One, item number 655900), fill the background wells with 90 μL and the positive control and inhibitor wells with 85 μL of assay buffer. Add 5 μL of DMSO to background and positive control wells, and then add 5 μL of inhibitor solution in inhibitor wells. Add 5 μL of the solution of hsEH to the positive control and inhibitor wells and mix several time. Prepare a 1/21 dilution of the solution of PHOME with assay buffer according to final volume required, and then add 105 μL of each well. Shake carefully the plate for 10 seconds and incubate for 5 minutes at room temperature. […] Results were obtained by regression analysis from at least three data points in a linear region of the curve. IC50 values are average of minimum three independent replicates.

[4] = Parallel artificial membrane permeation assay for blood-brain barrier (PAMPA-BBB); type: in vitro ADME, porcine; settings: PBS:EtOH (70:30)
Experimental: The in vitro permeability (Pe) of the test compounds through lipid extract of porcine brain membrane was determined. Assayed compounds were tested using a mixture of PBS:EtOH (70:30). […] From this equation and taking into account the limits established by Di et al. for BBB permeation, the ranges of permeability were established, as follows.

In the case of `O=C(N[C@]12CC3C[C@@H](C[C@H](C3)O1)C2)N[C@H]1CC[C@H](Oc2ccc(C(=O)O)cc2)CC1` [Ig, trans-1-(2-oxaadamantan-1-yl)-3-[4-(4-carboxyphenoxy)cyclohexyl]urea], the CC50 at 72 h [1] is reported as greater than 100 µM, the “Level of CHOP mRNA” value ([2]; control (CT) = 100.0, PAL alone 224.5) is reported as 147.6 ± 15.9^(##) and the “Level of BiP mRNA” value ([2]; control (CT) = 100.0, PAL alone 242.9) is reported as 174.9 ± 31.4^(#). The “Level of ATF3 mRNA” value ([2]; control (CT) = 100.0, PAL alone 585.5) was 286.7 ± 59.9^(###), the IC50 [3] was 13.4 ± 4 nM and the CNS prediction [4] was “CNS+ (Compounds of high BBB permeation (CNS+): Pe (10^6 cm s^−1)>5.181)”.
